The test system of test [1] is MAb Hs-3. The format is binding.
Test [2] has as its system Mab Hs-1. The class given is binding.
Test [3] has as its system MAb Hs-2. The class given is binding.
In test [4] the test system is Japanese encephalitis virus. The format is cell-based, Porcine stable kidney cells; sera from mice.
The subject of test [5] is Japanese encephalitis virus. The class given is in vivo, mice (C3H, BALB/c, SWISS). Particulars: observed 21 days.
The subject of test [6] is Japanese encephalitis virus. The format is in vivo, mice (BALB/C, C3H, SWISS/Albino). Particulars: 50 ug peptide per mouse per dose sc with Freund's adjuvant every 14 days; FIGS. 3A-3C.
Test [7] has as its system Japanese encephalitis virus. The class given is in vivo, BALB/c mice. Particulars: 40 ug conjugate per mouse per dose with Freund's adjuvant.
The mark [8] stands for this setting: other strains of mice (BALB/c or SWISS).

Read-outs that look alike come from different tables or passages of the source.

As for AIVVEYSS [269-AIVVEYSS-276], in test [1], the “Reactivity with monoclonal antibody Hs-3, OD values at 492 nm” value is listed as 0.115. In addition, in test [2], the “Reaction with Mab Hs-1 (in words)” value is given as “react with Mab Hs-1” and the “Reactivity with monoclonal antibody Hs-1, OD values at 492 nm” value was determined as 0.696. Also, the “Reactivity with monoclonal antibody Hs-2, OD values at 492 nm” value in test [3] turned out to be 0.041.
In the case of ANDKPTLD [35-ANDKPTLD-42], the “Reactivity with monoclonal antibody Hs-3, OD values at 492 nm” value in test [1] is reported as 0.052. The “Reactivity with monoclonal antibody Hs-1, OD values at 492 nm” value in test [2] is on record as 0.022. For the same substance, in test [3], the “Reactivity with monoclonal antibody Hs-2, OD values at 492 nm” value is recorded as 0.016.
On to DKPTLDVR [37-DKPTLDVR-44], for which the “Reactivity with monoclonal antibody Hs-3, OD values at 492 nm” value in test [1] worked out at 0.035. Besides, the “Reactivity with monoclonal antibody Hs-1, OD values at 492 nm” value in test [2] was determined as 0.029. Further, the “Reactivity with monoclonal antibody Hs-2, OD values at 492 nm” value in test [3] was 0.016.
DVRMINIE [42-DVRMINIE-49]: the “Reactivity with monoclonal antibody Hs-3, OD values at 492 nm” value in test [1] was 0.043. For the same substance, the “Reactivity with monoclonal antibody Hs-1, OD values at 492 nm” value in test [2] worked out at 0.155. Moreover, the “Reactivity with monoclonal antibody Hs-2, OD values at 492 nm” value in test [3] is 0.008.
Turning to EYSSSVKL [273-EYSSSVKL-280], in test [1], the “Reactivity with monoclonal antibody Hs-3, OD values at 492 nm” value was found to be 0.110. Moreover, the “Reactivity with monoclonal antibody Hs-1, OD values at 492 nm” value in test [2] worked out at 0.538. For the same substance, the “Reactivity with monoclonal antibody Hs-2, OD values at 492 nm” value in test [3] is listed as 0.045.
Consider “H-SENHGNYSAQVGASQGSIGGVFNSIGKAVHQVFG-OH [chimeric peptide]”, for which the “Neutralization of Japanese encephalitis virus by anti-peptide sera” value in test [4] (setting [8]) is reported as “not able to neutralize the virus”; in test [4] (sera from C3H mice, diluted 1:50, plaque reduction, FIG. 4), “capable of neutralizing Japanese encephalitis virus”. Besides, the “Resistance to lethal virus challenge (survival)” value is listed as “able to resist the virus challenge” in test [5] (C3H mice, challenge virus dose 2.3 log LD 50 i.p. followed by 1% starch i.c., FIG. 5) and “nor were they able to resist the virus challenge” in test [5] (setting [8]). Besides, the “Anti Japanese encephalitis virus response by ELISA (in words)” value in test [6] is listed as “capable of eliciting an immune response against JE virus”.
As for IMANDKPT [33-IMANDKPT-40], the “Reactivity with monoclonal antibody Hs-3, OD values at 492 nm” value in test [1] stood at 0.017. The “Reactivity with monoclonal antibody Hs-1, OD values at 492 nm” value in test [2] is 0.110. In addition, in test [3], the “Reactivity with monoclonal antibody Hs-2, OD values at 492 nm” value was found to be 0.016.
The corresponding values for IVVEYSSS [270-IVVEYSSS-277] are 0.112, 0.637 and 0.030.
Consider LDVRMINI [41-LDVRMINI-48], for which the “Reactivity with monoclonal antibody Hs-3, OD values at 492 nm” value in test [1] is listed as 0.082. For the same substance, the “Reactivity with monoclonal antibody Hs-1, OD values at 492 nm” value in test [2] worked out at 0.277. Moreover, the “Reactivity with monoclonal antibody Hs-2, OD values at 492 nm” value in test [3] is listed as 0.007.
On the same counts, the results for MINIEASQ [45-MINIEASQ-52] are 0.080, 0.177 and 0.001.
On the same counts, the results for NHGNYSAQVGASQ [151-NHGNYSAQVGASQ-163] are 0.258, 0.074 and 0.294.
With NIEASQLA [47-NIEASQLA-54], the “Reactivity with monoclonal antibody Hs-3, OD values at 492 nm” value in test [1] came out at 0.081. The “Reactivity with monoclonal antibody Hs-1, OD values at 492 nm” value in test [2] is 0.07. Besides, in test [3], the “Reactivity with monoclonal antibody Hs-2, OD values at 492 nm” value stood at 0.003.
For the substance Ovalbumin, the “Reactivity of anti peptide sera with Japanese encephalitis virus by ELISA, mean optical density” value turned out to be 0.127 ± 0.022 in test [7] (sera collected on post inoculation day 7), 0.116 ± 0.072 in test [7] (sera collected on post inoculation day 14) and 0.153 ± 0.003 in test [7] (sera collected on post inoculation day 21).
With PTLDVRMI [39-PTLDVRMI-46], the “Reactivity with monoclonal antibody Hs-3, OD values at 492 nm” value in test [1] was 0.025. Besides, in test [2], the “Reaction with Mab Hs-1 (in words)” value is “react with Mab Hs-1” and the “Reactivity with monoclonal antibody Hs-1, OD values at 492 nm” value is listed as 0.313. In addition, in test [3], the “Reactivity with monoclonal antibody Hs-2, OD values at 492 nm” value was 0.006.
As for “SENHGNYSAQVGASQ [149-SENHGNYSAQVGASQ-163]”, the “Reactivity with monoclonal antibody Hs-3, OD values at 492 nm” value in test [1] is recorded as 0.377. The “Reactivity with monoclonal antibody Hs-1, OD values at 492 nm” value in test [2] was 0.093. The “Anti Japanese encephalitis virus response by ELISA (in words)” value in test [6] is on record as “capable of eliciting an immune response against JE virus”. The “Reactivity with monoclonal antibody Hs-2, OD values at 492 nm” value in test [3] is listed as 0.415.
With SSSVKLTS [275-SSSVKLTS-282], the “Reactivity with monoclonal antibody Hs-3, OD values at 492 nm” value in test [1] is reported as 0.136. Besides, in test [2], the “Reactivity with monoclonal antibody Hs-1, OD values at 492 nm” value was 0.765. Also, the “Reactivity with monoclonal antibody Hs-2, OD values at 492 nm” value in test [3] turned out to be 0.053.
Turning to SSVKLTSG [276-SSVKLTSG-283], the “Reactivity with monoclonal antibody Hs-3, OD values at 492 nm” value in test [1] came out at 0.123. Further, the “Reactivity with monoclonal antibody Hs-1, OD values at 492 nm” value in test [2] came to 0.447. Further, the “Reactivity with monoclonal antibody Hs-2, OD values at 492 nm” value in test [3] was 0.061.
For the substance TLDVRMIN [40-TLDVRMIN-47], the “Reactivity with monoclonal antibody Hs-3, OD values at 492 nm” value in test [1] amounted to 0.064. Besides, the “Reactivity with monoclonal antibody Hs-1, OD values at 492 nm” value in test [2] came to 0.329. The “Reactivity with monoclonal antibody Hs-2, OD values at 492 nm” value in test [3] is reported as 0.008.
Turning to VEYSSSVK [272-VEYSSSVK-279], in test [1], the “Reactivity with monoclonal antibody Hs-3, OD values at 492 nm” value stood at 0.106. In test [2], the “Reactivity with monoclonal antibody Hs-1, OD values at 492 nm” value stood at 0.290. The “Reactivity with monoclonal antibody Hs-2, OD values at 492 nm” value in test [3] was 0.040.
For VRMINIEA [43-VRMINIEA-50], the “Reactivity with monoclonal antibody Hs-3, OD values at 492 nm” value in test [1] is 0.133. Moreover, the “Reactivity with monoclonal antibody Hs-1, OD values at 492 nm” value in test [2] worked out at 0.338. Besides, the “Reactivity with monoclonal antibody Hs-2, OD values at 492 nm” value in test [3] was found to be 0.012.
For VVEYSSSV [271-VVEYSSSV-278], in test [1], the “Reactivity with monoclonal antibody Hs-3, OD values at 492 nm” value was determined as 0.090. For the same substance, in test [2], the “Reactivity with monoclonal antibody Hs-1, OD values at 492 nm” value came to 0.659. Moreover, the “Reactivity with monoclonal antibody Hs-2, OD values at 492 nm” value in test [3] was 0.029.
On the same counts, the results for YSAQVGASQ [155-YSAQVGASQ-163] are 0.334, 0.118 and 0.492.
As for YSAQVGASQAAKF [155-YSAQVGASQAAKF-167], in test [1], the “Reactivity with monoclonal antibody Hs-3, OD values at 492 nm” value came out at 0.377. Further, in test [2], the “Reactivity with monoclonal antibody Hs-1, OD values at 492 nm” value came out at 0.106. In addition, in test [3], the “Reactivity with monoclonal antibody Hs-2, OD values at 492 nm” value is reported as 0.501.
As for YSSSVKLT [274-YSSSVKLT-281], the “Reactivity with monoclonal antibody Hs-3, OD values at 492 nm” value in test [1] came to 0.153. In test [2], the “Reactivity with monoclonal antibody Hs-1, OD values at 492 nm” value is 0.616. Besides, in test [3], the “Reactivity with monoclonal antibody Hs-2, OD values at 492 nm” value was found to be 0.054.

For the origin of these results see patent US7595053B2 (priority 2001, dated 2009).
